Reference: article PMC9854410, “Targeted isolation of antitubercular cycloheptapeptides and an unusual pyrroloindoline-containing new analog, asperpyrroindotide A, using LC–MS/MS-based molecular networking” (Marine Life Science & Technology, 2023)
≈ marks a conversion by molar mass, not a printed value. Marks after values point to notes of the source that are not given here. Starred links: 1 amine or outer side, 2 acyl side, 3 side chain; linkers in the order of their positions; H or OH if unused. Non-standard residues stand in square brackets, D forms with d. Residues, ends and D or L forms follow the SMILES beside them. X1 = O=C([C@H]1C[C@]2(O)c3ccccc3N[C@@H]2N1[*:1])[*:2]

Experiments:
Mycobacterium marinum = system: Mycobacterium marinum; design: method as in Hou et al. [2019b]; conditions: previous research; positive controls rifampin, streptomycin, isoniazid; ref Hou et al. [2019b]; cited from earlier work
[1] = system: Mycobacterium tuberculosis H37Ra (ATCC 25,177); assay: microbe, parasite or virus in culture; type: cell-based; conditions: microplate Alamar Blue assay; for inhibitory activity against M. tuberculosis H37Ra at a single concentration: at a concentration of 100 μg/mL
Experimental: Anti-mycobacterial activity was determined against Mycobacterium tuberculosis H37Ra (ATCC 25,177) in a microplate Alamar Blue assay system (Collins et al. [1997]). The anti-tubercular drug rifampin was used as a positive control.

[2] = system: Mycobacterium tuberculosis H37Ra (ATCC 25,177); conditions: reported data; ref Hou et al. 2019; cited from earlier work
Description: Supplement 42995_2022_157_MOESM1_ESM.docx, table 2: Table S2. Antitubercular activity of compounds 1, 8−19 and previously reported 2, 20−23 against Mycobacterium tuberculosis H37Ra | column: MICs (μmol/L)

| Molecule | minimum inhibitory concentrations (MICs) against Mycobacterium marinum (Mycobacterium marinum) [µmol/L] | MICs (μg/mL) against Mycobacterium tuberculosis H37Ra ([1]; rifampin as positive control) [µg/mL] | also measured |
| --- | --- | --- | --- |
| CC(C)[C@H]1NC(=O)[C@H](Cc2ccccc2)NC(=O)[C@@H](C(C)C)NC(=O)[C@@H](C)NC(=O)[C@H](CO)NC(=O)[C@@H](Cc2c[nH]c3ccccc23)NC(=O)[C@@H](CO)NC1=O [Compound 1, asperversiamide A] (cyclo([dV][dS][dW]S[dA][dV]F)) | 23.4 (≈ 18.2 µg/mL) | > 100 |  |
| CC(C)[C@H]1NC(=O)[C@H](Cc2ccccc2)NC(=O)[C@@H](C(C)C)NC(=O)[C@@H](C)NC(=O)[C@H](CO)NC(=O)[C@H]2C[C@]3(O)c4ccccc4N[C@@H]3N2C(=O)[C@@H](CO)NC1=O [Compound 8, asperpyrroindotide A] (cyclo([X1]S[dA][dV]F[dV][dS])) |  | > 100 | inhibitory activity against M. tuberculosis H37Ra at a single concentration [1]: None of them showed obvious inhibitory activity |
| CC(C)[C@H]1NC(=O)[C@H](Cc2ccccc2)NC(=O)[C@@H](C(C)C)NC(=O)[C@@H](C)NC(=O)[C@H](C)NC(=O)[C@H]2C[C@]3(O)c4ccccc4N[C@@H]3N2C(=O)[C@@H](CO)NC1=O [Compound 9] (cyclo([X1]A[dA][dV]F[dV][dS])) |  | > 100 | inhibitory activity against M. tuberculosis H37Ra at a single concentration [1]: None of them showed obvious inhibitory activity |
| NNC(=O)c1ccncc1 [isoniazid, reference compound] | 88.5 (≈ 12.1 µg/mL) |  |  |
| CO[C@H]1/C=C/O[C@@]2(C)Oc3c(C)c(O)c4c(O)c(c(/C=N/N5CCN(C)CC5)c(O)c4c3C2=O)NC(=O)/C(C)=C\C=C\[C@H](C)[C@H](O)[C@@H](C)[C@@H](O)[C@@H](C)[C@H](OC(C)=O)[C@@H]1C [rifampin, reference compound] | 19.0 (≈ 15.6 µg/mL) |  | MIC ([1]; Mycobacterium tuberculosis, rifampin as positive control, read-out: MICs (μg/mL) against Mycobacterium tuberculosis H37Ra): 0.0156 µg/mL (≈ 0.019 µM) |
| [H]/N=C(/N)N[C@H]1[C@H](O)[C@@H](O)[C@H](O[C@@H]2O[C@@H](C)[C@](O)(C=O)[C@H]2O[C@@H]2O[C@@H](CO)[C@H](O)[C@@H](O)[C@@H]2NC)[C@@H](N/C(N)=N\[H])[C@@H]1O [streptomycin, reference compound] | 20.1 (≈ 11.7 µg/mL) |  |  |
| asperversiamide B [Compound 2] | 81.2 |  | MICs (μmol/L) against Mycobacterium tuberculosis H37Ra [2]: 100 ^b μmol/L |
| asperversiamide C [Compound 3] | 87.5 |  |  |
